Measured values published in article PMC12116161, “An Elastase Inhibitor ShSPI from Centipede Attenuates Bleomycin-Induced Pulmonary Fibrosis” (Toxins, 2025).

Tested on: MCP-1, IL-6, IL-1β, IFN-γ, IL-10, TGF-β mRNA in lung tissue
Experiment: RT-qPCR of inflammatory factor mRNA in lung tissue of IPF mice
Format: in vivo, ICR mice
Conditions: pirfenidone 200 mg/kg oral gavage once daily for 7 days, BLM-induced IPF mice
Description: Animal Model Preparation: The peptide powder was dissolved in pre-cooled saline and filtered to remove bacteria, then a spray needle was attached to a micro-syringe to aspirate the peptide solution. A total of 56 ICR mice were anesthetized by intramuscular injection of avertin. After anesthesia, the mice were fixed supine, the tongue was gently pulled, the vocal folds were exposed with a laryngoscope, the trachea was gently inserted, and the nebulized solution was rapidly pushed and injected. Each mouse was administered 100 μL of a 0.4 mg/mL bleomycin solution via tracheal spray, with the treatment performed once. Seven days after modeling, the mice were randomly grouped for ShSPI treatment based on weight loss scores. An additional 8 mice received the vehicle (normal saline) and were designated as the sham group.
A total of 48 suitable mice were randomly divided into five groups: the model control group (MC), the positive control group (PC), and the ShSPI low-dose groups (1 mg/kg), medium-dose groups (2 mg/kg), and high-dose groups (4 mg/kg).
Drug Administration: Starting on day 7 post-modeling, ShSPI peptide treatment groups were anesthetized with intramuscular avertin and received tracheal spray administration of the peptide. The low-dose group was treated with 1 mg/kg ShSPI peptide, the medium-dose group with 2 mg/kg, and the high-dose group with 4 mg/kg. The positive control group, without anesthesia, received 200 mg/kg pirfenidone (IPFD) via oral gavage. All groups were treated once daily for seven consecutive days.
The left lobe of the lung was collected from each mouse for total RNA extraction using RNAiso Plus, following the manufacturer’s instructions. The extracted RNA was quantified using a UV spectrophotometer. One microgram of total RNA was reverse transcribed into cDNA using a first-strand cDNA synthesis kit, following the provided protocol. Quantitative PCR (qPCR) was performed on a QuantStudio system using 2× SYBR Green qPCR Master Mix, and β-actin served as the internal control. The PCR reaction utilized a two-step protocol: 95 °C for 15 s, followed by 60 °C for 60 s, repeated for 40 cycles. Gene expression levels were calculated using the 2^−ΔΔCt method.

Cc1ccc(=O)n(-c2ccccc2)c1 [pirfenidone, reference compound]
mRNA content of pro-inflammatory cytokines (MCP-1, IL-6, IL-1β, IFN-γ) in lung tissue: reduction
